Some results are limits rather than exact numbers.

One data set has as its system RSV A2 strain. Nature of the data set: Assessment of RSV induced CPE in HEp2 cells (RSV A2 strain). In kind it is cell-based. The conditions noted are these: human respiratory syncytial virus, HEp2 cells; for IC50: HEp-2, 120 h, 1 MOI, 5 days, read-out: RSV A2 CPE IC50; for inhibition at 0.1 µg/mL / inhibition at 0.01 µg/mL: HEp-2; for inhibition at 0.1 µg/mL: Inhibition (%) at 0.1 μg/mL, read-out: RSV A2 CPE % Inhibition; for inhibition at 0.01 µg/mL: Inhibition (%) at 0.01 μg/mL. The procedure:
(§1) Assessment of RSV Induced CPE in HEp2 Cells
(§2) HEp2 cells were seeded (10^3/well/50 μL) in 384-well plates (Catalogue number 353962, BD Falcon, Oxford, UK) in […] containing 2 mM L-glutamine and 1 mM sodium pyruvate one day before infection. RSV A2 strain (#0709161v, NCPV, Public Health England, Wiltshire) or RSV B Washington strain (VR-1580, ATCC, Manassas, Va. 20108) virus solutions were prepared in serum free-DMEM with 2 mM L-glutamine and 1 mM sodium pyruvate, and then added (50 μL/well) to achieve a final virus concentration of 1 MOI. Simultaneously test compounds (0.5 μL DMSO solution) were added to 100 μL of HEp2 cell culture with virus solution to provide a final DMSO solution of 0.5%. Plates were incubated (37° C./5% CO2) for 5 days for studies using RSV A2 strain or 6 days for those using RSV B strain, and then resazurin sodium salt (5 μL of 0.03% solution; Sigma-Aldrich, Dorset, UK) was added to each well and the plate incubated for a further 6 hr (37° C./5% CO2). The fluorescence of each well [545 nm (excitation)/590 nm (emission)] was determined using a multi-scanner (Clariostar: BMG, Buckinghamshire, UK). The percentage inhibition for each well was calculated and the IC50, IC75 and IC90 values were calculated from the concentration-response curve generated for each test compound.

The nature of data set [1]: Cell viability: resazurin assay. In kind it is cell-based, human. The conditions noted are these: human, HEp2 cells. How it is done:
Cell Viability: Resazurin Assay
HEp2 cells were seeded in 384-well plates (10^3/well/50 μL; BD Falcon Ref 353962) in FBS DMEM (5%, containing 2 mM L-glutamine and 1 mM sodium pyruvate) one day before experimentation. Serum-free DMEM (50 μL) was added to test wells while for control wells the media was removed and sterile water (100 μL) was added. Test compounds (0.5 μL DMSO solution) were added to give a final DMSO concentration of 0.5%. Hep2 cells were incubated with each test compound for 5 days (37° C./5% CO2 in 5% FBS) and then resazurin stock solution (5 μL; 0.03%) was added to each well and the plate incubated for a further 6 hr (37° C./5% CO2). The fluorescence of each well at 545 nm (excitation) and 590 nm (emission) was determined using a multi-scanner (Clariostar: BMG Labtech). The percentage loss of cell viability was calculated for each well relative to vehicle (0.5% DMSO) treatment.
Any apparent increase in cell viability associated with test compound treatment relative to vehicle is consequently tabulated as a negative percentage. Where appropriate, a CC50 value was calculated from the concentration-response curve generated from the concentration-response curve for each test compound.

Another data set concerns RSV B Washington strain. Nature of the data set: Assessment of RSV induced CPE in HEp2 cells (RSV B Washington strain). The conditions noted are these: human respiratory syncytial virus, HEp2 cells; for IC50: HEp-2, 144 h, 1 MOI, 6 days, read-out: RSV B CPE IC50; for inhibition at 1 µg/mL / inhibition at 0.1 µg/mL: HEp-2; for inhibition at 1 µg/mL: Inhibition (%) at 1 μg/mL, read-out: RSV B CPE % Inhibition; for inhibition at 0.1 µg/mL: Inhibition (%) at 0.1 μg/mL. In kind it is cell-based. The procedure: as §1, §2

A word on the IC50: it is the point on the concentration scale where inhibition reaches its midpoint. The term inhibition denotes the share of the control response that was lost under treatment. Usually CC50 stands for the concentration giving 50% cytotoxicity. A low value points to greater toxicity to the cells. On to `Cc1cnc(N2CC3(CCOCC3)C2)c(C(=O)Nc2ccc(C(=O)N3CCc4cc(C(=O)Nc5ccc(F)cc5F)sc4-c4ccccc43)cc2)c1` [Example 38, N-(2,4-difluorophenyl)-6-(4-(5-methyl-2-(7-oxa-2-aza-spiro[3.5]nonan-2-yl)nicotinamido)benzoyl)-5,6-dihydro-4H-benzo[b]thieno[2,3-d]azepine-2-carboxamide], for which, in the data set with RSV A2 strain, the IC50 was under 0.014 nM and the inhibition at 0.1 µg/mL was 100%. Further, the CC50 at 5 days in data set [1] was over 13900 nM. Also, in the data set with RSV B Washington strain, the IC50 came to 18.4 nM and the inhibition at 1 µg/mL is 73%.

`O=C(Nc1c(F)cccc1F)c1cc2c(s1)-c1ccccc1N(C(=O)c1ccc(NC(=O)c3cc4ccccc4nc3N3CC4(CCOCC4)C3)cc1)CC2` [Example 86, 6-(4-(2-(7-oxa-2-azaspiro[3.5]nonan-2-yl)quinoline-3-carboxamido)benzoyl)-N-(2,6-difluorophenyl)-5,6-dihydro-4H-benzo[b]thieno[2,3-d]azepine-2-carboxamide]: in the data set with RSV A2 strain, the IC50 amounted to 0.17 nM and the inhibition at 0.01 µg/mL amounted to 85%. For the same compound, the CC50 at 5 days in data set [1] is over 13200 nM. For the same compound, in the data set on RSV B Washington strain, the IC50 stood at 23 nM and the inhibition at 0.1 µg/mL worked out at 100%.

On to `Cc1cnc(N2CC3(CCOCC3)C2)c(C(=O)Nc2ccc(C(=O)N3CCc4cc(C(=O)Nc5c(F)cccc5I)sc4-c4ccccc43)cc2)c1` [Example 6, N-(2-Fluoro-6-iodophenyl)-6-(4-(5-methyl-2-(7-oxa-2-azaspiro[3.5]nonan-2-yl)nicotinamido)benzoyl)-5,6-dihydro-4H-benzo[b]thieno[2,3-d]azepine-2-carboxamide], for which, in the data set on RSV A2 strain, the IC50 amounted to 0.13 nM and the inhibition at 0.01 µg/mL is 100%. The CC50 at 5 days in data set [1] was over 12100 nM. For the same compound, in the data set with RSV B Washington strain, the IC50 is 4.2 nM and the inhibition at 1 µg/mL came to 100%.

Take `C#Cc1cnc(N2CC3(CCOCC3)C2)c(C(=O)Nc2ccc(C(=O)N3CCc4cc(C(=O)Nc5c(F)cccc5Cl)sc4-c4ccccc43)cc2)c1` [Example 66, N-(2-chloro-6-fluorophenyl)-6-(4-(5-ethynyl-2-(7-oxa-2-azaspiro[3.5]nonan-2-yl)nicotinamido)benzoyl)-5,6-dihydro-4H-benzo[b]thieno[2,3-d]azepine-2-carboxamide]: in the data set with RSV A2 strain, the IC50 came out at 0.15 nM and testing at 0.01 µg/mL gave an inhibition of 95%. This compound returned a CC50 at 5 days in data set [1] of over 13400 nM. In addition, in the data set on RSV B Washington strain, the IC50 was 4.8 nM and the inhibition at 1 µg/mL is 95%.

Turning to `Cc1cc(C(=O)Nc2ccc(C(=O)N3CCc4cc(C(=O)Nc5ccc(F)cc5F)sc4-c4ccccc43)cc2)c(N2CC3(CCOCC3)C2)nc1C` [Example 45, N-(2,4-difluorophenyl)-6-(4-(5,6-dimethyl-2-(7-oxa-2-azaspiro[3.5]nonan-2-yl)nicotinamido)benzoyl)-5,6-dihydro-4H-benzo[b]thieno[2,3-d]azepine-2-carboxamide], in the data set with RSV A2 strain, the IC50 was 0.11 nM and the inhibition at 0.1 µg/mL amounted to 100%. Besides, the cytotoxic concentration (CC50) at 5 days in data set [1] was over 13600 nM. In the data set with RSV B Washington strain, the IC50 worked out at 84 nM and the inhibition at 1 µg/mL came to 68%.

In the case of `O=C(Nc1ccccc1F)c1cc2c(s1)-c1ccccc1N(C(=O)c1ccc(NC(=O)c3cccnc3N3CC4(CCOCC4)C3)cc1F)CC2` [Example 29, 6-(4-(2-(7-oxa-2-azaspiro[3.5]nonan-2-yl)nicotinamido)-2-fluorobenzoyl)-N-(2-fluorophenyl)-5,6-dihydro-4H-benzo[b]thieno[2,3-d]azepine-2-carboxamide], in the data set with RSV A2 strain, the IC50 was 0.13 nM and the inhibition at 0.1 µg/mL is 97%. Further, in data set [1], the CC50 at 5 days was over 14200 nM. Besides, in the data set on RSV B Washington strain, the IC50 is 27.9 nM and the inhibition at 1 µg/mL was found to be 73%.

On to `COc1cnc(N2CC3(CCOCC3)C2)c(C(=O)Nc2ccc(C(=O)N3CCc4cc(C(=O)Nc5c(C)cccc5F)sc4-c4ccccc43)cc2)c1` [Example 71, N-(2-fluoro-6-methylphenyl)-6-(4-(5-methoxy-2-(7-oxa-2-azaspiro[3.5]nonan-2-yl)nicotinamido)benzoyl)-5,6-di-hydro-4H-benzo[b]thieno[2,3-d]azepine-2-carboxamide], for which, in the data set with RSV A2 strain, the IC50 amounted to 0.61 nM and the inhibition at 0.01 µg/mL was found to be 100%. Further, the CC50 at 5 days in data set [1] was over 13700 nM. Further, in the data set with RSV B Washington strain, the IC50 came to 15.5 nM and the inhibition at 0.1 µg/mL is 100%.

As to `Cc1cnc(N2CC3(CCOCC3)C2)c(C(=O)Nc2ccc(C(=O)N3CCc4cc(C(=O)Nc5c(F)cccc5OCCO)sc4-c4ccccc43)cc2)c1` [Example 54, N-(2-fluoro-6-(2-hydroxyethoxy)phenyl)-6-(4-(5-methyl-2-(7-oxa-2-azaspiro[3.5]nonan-2-yl)nicotinamido)benzoyl)-5,6-dihydro-4H-benzo[b]thieno[2,3-d]azepine-2-carboxamide], in the data set with RSV A2 strain, the IC50 came out at 1.5 nM and the inhibition at 0.01 µg/mL is 100%. The 50% cytotoxic concentration (CC50) at 5 days in data set [1] was over 13100 nM. Besides, in the data set on RSV B Washington strain, the IC50 was found to be 89.8 nM and the inhibition at 1 µg/mL is 100%.

On to `O=C(Nc1c(F)cccc1F)c1cc2c(s1)-c1ccccc1N(C(=O)c1ccc(NC(=O)c3cc4c(nc3N3CC5(CCOCC5)C3)CCC4)cc1F)CC2` [Example 79, 6-(4-(2-(7-oxa-2-azaspiro[3.5]nonan-2-yl)-6,7-dihydro-5H-cyclopenta[b]pyridine-3-carboxamido)-2-fluorobenzoyl)-N-(2,6-difluorophenyl)-5,6-dihydro-4H-benzo[b]thieno[2,3-d]azepine-2-carboxamide], for which, in the data set with RSV A2 strain, the IC50 worked out at 2.3 nM and at 0.01 µg/mL the inhibition was 92%. The CC50 at 5 days in data set [1] was over 13100 nM. For the same compound, in the data set with RSV B Washington strain, the IC50 came out at 1.8 nM and the inhibition at 1 µg/mL is 93%.

As for `Cc1cccc(C)c1NC(=O)c1cc2c(s1)-c1ccccc1N(C(=O)c1ccc(NC(=O)c3cccnc3N3CC4(CCOCC4)C3)cc1)CC2` [Example 24, 6-(4-(2-(7-oxa-2-azaspiro[3.5]nonan-2-yl)nicotinamido)benzoyl)-N-(2,6-dimethylphenyl)-5,6-dihydro-4H-benzo[b] thieno[2,3-d]azepine-2-carboxamide], in the data set with RSV A2 strain, the IC50 was 0.57 nM and the inhibition at 0.1 µg/mL stood at 88%. The compound also yielded a CC50 at 5 days in data set [1] of over 14300 nM. Moreover, in the data set with RSV B Washington strain, the IC50 came to 19.6 nM and the inhibition at 1 µg/mL was determined as 65%.

With `O=C(Nc1ccccc1F)c1cc2c(s1)-c1ccccc1N(C(=O)c1ccc(NC(=O)c3cc(C4CC4)cnc3N3CC4(CCOCC4)C3)cc1)CC2` [Example 4, 6-(4-(5-Cyclopropyl-2-(7-oxa-2-azaspiro[3.5]nonan-2-yl)nicotinamido)benzoyl)-N-(2-fluorophenyl)-5,6-dihydro-4H-benzo[b]thieno[2,3-d]azepine-2-carboxamide], in the data set with RSV A2 strain, the IC50 was found to be 2.1 nM and the inhibition at 0.01 µg/mL came to 100%. The CC50 at 5 days in data set [1] was over 13700 nM. For the same compound, in the data set on RSV B Washington strain, the half-maximal inhibitory concentration (IC50) was 49.3 nM and the inhibition at 1 µg/mL worked out at 83%.

As to `COCc1cnc(N2CC3(CCOCC3)C2)c(C(=O)Nc2ccc(C(=O)N3CCc4cc(C(=O)Nc5c(F)cccc5Cl)sc4-c4ccccc43)cc2)c1` [Example 67, N-(2-chloro-6-fluorophenyl)-6-(4-(5-(methoxymethyl)-2-(7-oxa-2-azaspiro[3.5]nonan-2-yl)nicotinamido)benzoyl)-5,6-dihydro-4H-benzo[b]thieno[2,3-d]azepine-2-carboxamide], in the data set with RSV A2 strain, the IC50 stood at 0.17 nM and at 0.01 µg/mL the inhibition was 100%. In data set [1], this compound registered a 50% cytotoxic concentration (CC50) at 5 days of over 13100 nM. Also, in the data set on RSV B Washington strain, the half-maximal inhibitory concentration (IC50) was found to be 6.5 nM and the inhibition at 1 µg/mL worked out at 100%.

For `Cc1cnc(N2CC3(CCOCC3)C2)c(C(=O)Nc2ccc(C(=O)N3CCc4cc(C(=O)Nc5ccccc5C)sc4-c4ccccc43)cc2)c1` [Example 35, 6-(4-(5-methyl-2-(7-oxa-2-azaspiro[3.5]nonan-2-yl)nicotinamido)benzoyl)-N-(o-tolyl)-5,6-dihydro-4H-benzo[b] thieno[2,3-d]azepine-2-carboxamide], in the data set with RSV A2 strain, the concentration for half-maximal inhibition (IC50) amounted to 0.14 nM and the inhibition at 0.1 µg/mL came to 100%. Besides, the CC50 at 5 days in data set [1] was over 14300 nM. Moreover, in the data set on RSV B Washington strain, the IC50 came to 62.8 nM and the inhibition at 1 µg/mL amounted to 70%.
